Read-outs that look alike come from different tables or passages of the source.
What was measured:
[1] = tested on: MEL270 uveal melanoma cell line; test: SRB cell viability assay, MEL270; format: cell-based, Human
Procedure: TLD1433 is known to generate reactive oxygen species (ROS) with high quantum efficacy in many cancer cell lines. However, there is no report of the in vitro toxicity of this compound in eye melanoma (UM) cell lines. We determined the cell viability of three conjunctival melanoma cell lines (CRMM1, CRMM2 and CM2005.1), and three uveal melanoma cell lines (OMM1, OMM2.5, MEL270) in the presence of TLD1433, both in the dark or under green light irradiation (21 mW/cm^2, 19 J/cm^2, 520 nm, 15 min), and compared this viability to epidermoid carcinoma A431 and cutaneous melanoma A375 cell lines under the same conditions. The protocol used was based on previous work from the Bonnet group, and differed slightly from recommendations from McFarland et al.. […] The effective concentration (EC50) values, i.e., the concentration required to reduce cell viability by 50% compared to untreated wells, were assessed by fitting the dose-response curves with a Hill equation. The phototoxicity index (PI), defined as the ratio of the dark EC50 to the light EC50, was also calculated and represents the amplification of TLD1433 activity with a light trigger. […]
Figure 2 Cell viability after TLD1433 treatment of eight tumour cell lines (CRMM1, CRMM2, CM2005.1, OMM1, OMM2.5, MEL270, A431, A375). […] The absorbance of Sulforhodamine B in solution was measured at 520 nm. […]
At day 0, cells were detached using 1mL of trypsin, resuspended in 4 mL of media and transferred to a 15 mL corning falcon tube. Cells were counted using trypan blue and BioRad® TC20™ automated cell counter (Figure 11). Dilutions of 6000 (CRMM1), 6000 (CRMM2), 8000 (CM2005.1), 6000 (OMM1), 6000 (OMM2.5), 6000 (MEL270) 8000 (A431), and 4000 (A375) cells/well were calculated from each cell suspension at a final volume of 6 mL using the following formula: Vc=(Vt×10C)/Lc where Vt = total volume of solution, C = number of cells per well/per 100 μL and Lc = live cells count (cells/mL). […] Next day, the dye was dissolved using Tri-base (0.25%) and absorbance of SRB at 510 nm was recorded from each well using a Tecan plate reader. […]

other cell lines = tested on: other cell lines; design: method as in not given; settings: reported for TLD1433 with other cell lines; ref not given; cited from earlier work

SMILES: Cc1ccnc(-c2cc(C)ccn2)c1.Cc1ccnc(-c2cc(C)ccn2)c1.[Cl-].[Cl-].[Ru+2].c1csc(-c2ccc(-c3ccc(-c4nc5c6cccnc6c6ncccc6c5[nH]4)s3)s2)c1 [TLD1433]
- EC50 ([1]; MEL270, dark, 24 h treatment, SRB, read-out: EC50, dark): 1100 nM
- EC50 ([1]; MEL270, green light 520 nm, 15 min, 21 mW/cm^2, 19 J.cm^−2, DLI 24 h, read-out: EC50,light): 10 nM
- PI (photo index) ([1]; MEL270, ratio of dark and light EC50, 19 J.cm^−2 green light): 110
- PI (other cell lines): > 1000

Source: article PMC7139549, “TLD1433 Photosensitizer Inhibits Conjunctival Melanoma Cells in Zebrafish Ectopic and Orthotopic Tumour Models” (Cancers, 2020)
